{"source": "ChEMBL document CHEMBL1147811", "about": "“Synthesis of EF24-tripeptide chloromethyl ketone: a novel curcumin-related anticancer drug delivery system” (J Med Chem, 2006)", "key": {"[1]": {"test_system": "RPMI-7951", "assay": "Cytotoxicity against human TF expressing RPMI7951 cell line at 2 uM", "assay_type": "functional, cell-based"}, "[2]": {"test_system": "Melanocyte", "assay": "Cytotoxicity against human non-TF expressing melanocytes at 4 uM", "assay_type": "functional, cell-based"}, "[3]": {"test_system": "Melanocyte", "assay": "Viability of human non-TF expressing melanocytes", "assay_type": "cell-based"}, "[4]": {"test_system": "RPMI-7951", "assay": "Viability of human TF expressing RPMI7951 cell line", "assay_type": "cell-based"}, "[5]": {"test_system": "MDA-MB-231", "assay": "Viability of human TF expressing MDA-MB-231 cell line", "assay_type": "cell-based"}, "[6]": {"assay": "Viability of human non-TF expressing MCF10 cell line", "assay_type": "cell-based", "settings": "MCF10 cells (non-TF expressing); call rule not given here"}}}
{"smiles": "O=C1/C(=C/c2ccccc2F)CNC/C1=C\\c1ccccc1F", "values": [{"measurement": "Activity", "setting": "[1]", "value": "Toxic"}, {"measurement": "Activity", "setting": "[2]", "value": "Toxic"}]}
{"smiles": "N=C(N)NCCC[C@H](NC(=O)[C@H](Cc1ccccc1)NC(=O)[C@H](Cc1ccccc1)NC(=O)CCC(=O)N1C/C(=C\\c2ccccc2F)C(=O)/C(=C/c2ccccc2F)C1)C(=O)CCl.O=C(O)C(F)(F)F", "values": [{"measurement": "Activity", "setting": "[3]", "value": "Not Active"}, {"measurement": "Activity", "setting": "[4]", "value": "Not Active"}, {"measurement": "Activity", "setting": "[5]", "value": "Not Active"}, {"measurement": "viability", "setting": "[6]", "value": "> 95", "unit": "%"}]}
